Results taken from paper PMC9976898 (2022).

Test system: F7-40 (DNA, aptamer) CTTACGACCACCATGGGAATCGGGTGGCTTGGAGGTGCGT
Experiment: ITC
Details: 20 mM NaCl, 0.5 mM MgCl2; 10 mM Tris-HCl pH 7.4, 1% methanol, 23 °C

## C=C[C@H]1CN2CC[C@H]1C[C@H]2[C@H](O)c1ccnc2ccc(OC)cc12
  KD: 62.1 ± 4.9 µM
